Measurements taken from ChEMBL document CHEMBL1201862, “PubChem BioAssay data set” (2004).
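Step 1: Grow cells in 96-well plates. Step 2: Expose to compound for 48 hours at 5 concentrations. Step 3: Interpolate endpoints linearly; if unreached, use highest concentration. GI50 is the concentration that inhibits growth by half.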 Calls of active or inactive are those of the source. No stated cut-off is given here; in the data, active = GI50 up to about 1.1 µM and inactive = higher.

Tests used:
Experiment in all cases: inhibition of tumour cell growth, NCI panel, 48 h
[1] = system: 786-0
[2] = system: A498
[3] = system: A549
[4] = system: ACHN
[5] = system: DMS-273
[6] = system: HL-60
[7] = system: IGROV-1
[8] = system: KM12
[9] = system: M14
[10] = system: MDA-MB-231
[11] = system: MDA-N
[12] = system: NCI-H522
[13] = system: NCI/ADR-RES
[14] = system: RPMI-8226
[15] = system: RXF 393
[16] = system: SF-268
[17] = system: SF-539
[18] = system: SNB-19
[19] = system: UACC-62
[20] = system: UO-31

| Structure (SMILES) | GI50 [1] | GI50 [2] | GI50 [3] | GI50 [4] | GI50 [5] | GI50 [6] | GI50 [7] | GI50 [8] | GI50 [9] | GI50 [10] | GI50 [11] | GI50 [12] | GI50 [13] | GI50 [14] | GI50 [15] | GI50 [16] | GI50 [17] | GI50 [18] | GI50 [19] | GI50 [20] |
| --- | --- | --- | --- | --- | --- | --- | --- | --- | --- | --- | --- | --- | --- | --- | --- | --- | --- | --- | --- | --- |
| COCC(=O)OC1CCn2c1nc1c2C(=O)C(C)=C(NC(C)=O)C1=O (stereo not drawn) | 6.73 µM (inactive) | 27.9 µM (inactive) | 21.6 µM (inactive) | 8.91 µM (inactive) | 17.5 µM (inactive) | 1.43 µM (inactive) | 14.5 µM (inactive) | 15.7 µM (inactive) | 11.1 µM (inactive) | 1.24 µM (inactive) | 1.85 µM (inactive) | 4.57 µM (inactive) | 4.49 µM (inactive) | 2.33 µM (inactive) | 3.41 µM (inactive) | 6.73 µM (inactive) | 3.94 µM (inactive) | 19.6 µM (inactive) | 3.27 µM (inactive) | 12.6 µM (inactive) |
| CN(C)CCNC(=O)c1cccc2nc3c(ccc4ccccc43)nc12 | 2.91 µM (inactive) | 2.95 µM (inactive) | 1.21 µM (inactive) | 1.41 µM (inactive) | 1.54 µM (inactive) | 1.17 µM (inactive) | 2.9 µM (inactive) | 2.09 µM (inactive) | 2.49 µM (inactive) | 1.81 µM (inactive) | 1.72 µM (inactive) | 4.22 µM (inactive) | – | 1.91 µM (inactive) | 3.2 µM (inactive) | 0.675 µM (active) | 1.8 µM (inactive) | 5.06 µM (inactive) | 2.45 µM (inactive) | 3.38 µM (inactive) |
| O=C(C(=O)c1cc2ccccc2[nH]1)c1cc2ccccc2[nH]1 | > 284 µM (inactive) | > 347 µM (inactive) | > 347 µM (inactive) | > 347 µM (inactive) | > 318 µM (inactive) | 195 µM (inactive) | > 347 µM (inactive) | > 347 µM (inactive) | 213 µM (inactive) | – | – | 13.8 µM (inactive) | – | 22 µM (inactive) | 91.4 µM (inactive) | > 347 µM (inactive) | > 347 µM (inactive) | > 347 µM (inactive) | > 347 µM (inactive) | > 347 µM (inactive) |
| Cc1c(Cl)cccc1NC(=O)C(=O)C1C(=O)CC(C)(C)CC1=O | > 100 µM (inactive) | > 100 µM (inactive) | > 100 µM (inactive) | > 100 µM (inactive) | > 100 µM (inactive) | > 100 µM (inactive) | > 100 µM (inactive) | > 100 µM (inactive) | > 100 µM (inactive) | – | – | > 100 µM (inactive) | – | > 100 µM (inactive) | > 100 µM (inactive) | > 100 µM (inactive) | > 100 µM (inactive) | > 100 µM (inactive) | > 100 µM (inactive) | > 100 µM (inactive) |
